According to publication PMC7887271, “Fast acting allosteric phosphofructokinase inhibitors block trypanosome glycolysis and cure acute African trypanosomiasis in mice” (Nature Communications, 2021):
Read-outs that look alike come from different tables or passages of the source.

Legend:
hPFK-M = target: T1, hPFK-M (Homo sapiens, UniProt P08237); assay: ALDO/G3PDH/TIM linked enzyme assay, human PFK-M; assay type: biochemical; conditions: aldolase/TIM linked assay, 25 °C; highest concentration 100 µM
T1 construct: made in house; host or cells: PFK-deficient Saccharomyces cerevisiae
T1 sequence (P08237 1-780): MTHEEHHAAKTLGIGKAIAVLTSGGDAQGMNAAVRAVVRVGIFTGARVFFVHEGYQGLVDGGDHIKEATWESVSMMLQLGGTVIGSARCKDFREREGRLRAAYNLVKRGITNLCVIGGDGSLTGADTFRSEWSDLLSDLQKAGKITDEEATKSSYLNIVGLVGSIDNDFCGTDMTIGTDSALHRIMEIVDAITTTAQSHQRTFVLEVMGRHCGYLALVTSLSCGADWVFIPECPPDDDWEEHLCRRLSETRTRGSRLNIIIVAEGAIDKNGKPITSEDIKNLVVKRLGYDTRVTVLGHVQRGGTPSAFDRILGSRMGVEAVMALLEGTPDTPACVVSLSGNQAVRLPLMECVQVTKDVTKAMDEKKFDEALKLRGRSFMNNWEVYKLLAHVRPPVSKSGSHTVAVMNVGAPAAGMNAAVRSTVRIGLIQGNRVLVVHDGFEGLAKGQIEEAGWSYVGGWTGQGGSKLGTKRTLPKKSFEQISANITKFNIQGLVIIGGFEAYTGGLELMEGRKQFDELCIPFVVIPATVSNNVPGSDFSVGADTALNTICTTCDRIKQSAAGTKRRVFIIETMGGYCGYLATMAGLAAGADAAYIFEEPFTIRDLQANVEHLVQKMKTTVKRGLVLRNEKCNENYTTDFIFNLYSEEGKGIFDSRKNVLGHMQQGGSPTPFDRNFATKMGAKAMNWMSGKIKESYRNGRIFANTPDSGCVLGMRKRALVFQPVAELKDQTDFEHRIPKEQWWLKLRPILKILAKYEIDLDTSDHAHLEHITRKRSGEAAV
Protocol: Enzyme activity was measured using an aldolase/TIM linked assay at 25 °C. […] Experiments were carried out in duplicate. Data are presented as mean values ± standard deviation. […] Source data are provided as a Source Data File. b Kill time of CTCB-405 compared with existing HAT drugs in the clinic. […] Over 99% of trypanosomes were killed in under 30 min compared with much slower killing rates for the other drugs. The points on the graph for CTCB-405 were determined from two independent biological replicate experiments with each time point measured twice (using duplicate technical replicates). The ESD for each point on the graph is between 0.7 and 1.4%. For drugs in clinical use each point on the graph is the average of two technical replicates from one experiment (with a maximum difference of 7.8% for any of the points). Source data are provided as a Source Data File.
In the PFK/PYK/LDH assay, the linked PYK activity acts to convert the ADP produced by PFK back to ATP. As ATP is an inhibitor of human PFK (but not TbPFK) at concentrations higher than ~0.5 mM the regeneration of ATP is likely to affect the assay readout. […] TIM interconverts GA3P and DHAP, and DHAP is reduced to glycerol 3-phosphate by G3PD, alongside the oxidation of NADH to NAD^+, which was measured by observing the change in UV absorbance at 340 nm for 10 minutes at 25° C using a Spectramax© M5 Multimode plate reader. […]

[1] = Human hepatocytes intrinsic clearance; assay type: in vitro ADME
From the text: Methods are described in Supplementary Methods 5 and 6. Enzyme assay results are means ± SD in multiple assays. ADME results are averages of n = 2 or 3 measurements in individual assays.

[2] = Brain and plasma concentrations in mice after oral dose; assay type: in vivo; conditions: female, CD-1, mouse, single oral dose of 50 mg kg^−1, 2 h
Protocol: These values for concentrations of free compound in the brain give a Kp,uu value of 0.6 (defined as the ratio of unbound compound in brain to unbound compound in plasma). This ratio provides an estimate of the amount of free drug in the brain interstitial fluid as being just over half the free concentration in the blood.
Blood samples were collected from terminal cardiac puncture at 0.08 (IV only), 0.25, 0.5, 1 (PO only), 2, 4, 8 and 24 hour time points. The whole blood was centrifuged to obtain plasma. Brains were also collected following cardiac perfusion from both sets of animals at 2 hours. Analysis of the biological samples was carried out by the company Selcia. Plasma proteins were precipitated by addition of PBS (1 volume) followed by 3 volumes of acetonitrile containing internal standard (verapamil). Following filtration through a protein precipitation plate the eluent was dried under nitrogen and re-suspended in mobile phase prior to analysis. Individual brains were homogenised in PBS and diluted to 10% w/v and divided into aliquots consisting of brain homogenate (1 volume, 0.3 ml) and 3 volumes (0.9 ml) of acetonitrile containing internal standard. Samples were centrifuged and supernatants removed and taken through a protein precipitation plate alongside an appropriate standard. […] Eluents were analysed by LC-MS/MS using a Phenomenex Gemini NX column (C18,30 x 2.1 mm, 3 micron). […]

## CN(C)CCn1ccc2c(ccn2Cc2ccc(Cl)c(Cl)c2)c1=O [CTCB-405, 1-[(3,4-Dichlorophenyl)methyl]-5-[2-(dimethylamino)ethyl] pyrrolo[3,2-c]pyridin-4-one]
hPFK-M
  inhibition of hPFK-M: no significant inhibition
[1]
  Human hepatocytes Clint: 2.3 µL min^−1 per 10^6 cells
[2]; brain homogenate, read-out: mean concentration in brain homogenate
  concentration at 2 h: 1510 ng/g
[2]; plasma, read-out: mean plasma concentration
  concentration at 2 h: 366 ng/mL
